Laboratory results: PMC4583449, “Characterisation of (R)-2-(2-Fluorobiphenyl-4-yl)-N-(3-Methylpyridin-2-yl)Propanamide as a Dual Fatty Acid Amide Hydrolase: Cyclooxygenase Inhibitor” (PLoS ONE, 2015)
“And” between values parts separate entries of the source, which are not always exact repeats. Equal entries are not always repeated. Where two headings read alike, the source gives them in different places.

Legend:
rat brain FAAH = target: T1, rat brain FAAH (Rattus norvegicus, UniProt P97612); experiment: [3H]AEA hydrolysis in rat brain homogenates; assay type: biochemical; details: current authors, unpublished data; read-out: IC50 inhibition of [3H]AEA hydrolysis in rat brain homogenates
T1 construct: the racemate was studied in rat brain homogenates, whereas mouse brain homogenates were used here; from tissue; host or cells: rat brain homogenates
T1 sequence (P97612 1-579): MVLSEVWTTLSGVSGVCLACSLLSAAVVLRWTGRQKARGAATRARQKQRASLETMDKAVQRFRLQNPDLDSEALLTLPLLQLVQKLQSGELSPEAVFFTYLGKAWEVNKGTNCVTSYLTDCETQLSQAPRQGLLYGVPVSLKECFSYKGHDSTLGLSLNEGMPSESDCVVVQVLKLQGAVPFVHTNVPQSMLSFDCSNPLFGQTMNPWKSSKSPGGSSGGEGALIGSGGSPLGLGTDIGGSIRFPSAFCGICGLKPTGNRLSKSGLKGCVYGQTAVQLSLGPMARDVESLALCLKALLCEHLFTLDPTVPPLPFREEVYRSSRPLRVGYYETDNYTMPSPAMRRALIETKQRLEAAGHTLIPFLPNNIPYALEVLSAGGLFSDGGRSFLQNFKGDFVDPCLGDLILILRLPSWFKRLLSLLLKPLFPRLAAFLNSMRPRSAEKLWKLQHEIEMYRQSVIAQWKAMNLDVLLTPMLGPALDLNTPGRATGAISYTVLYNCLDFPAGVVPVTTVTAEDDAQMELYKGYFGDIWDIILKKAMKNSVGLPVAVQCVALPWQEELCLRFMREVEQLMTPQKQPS

RAW 264.7 cells [1] = experiment: Lipid profile (prostaglandins, 2-AG, AEA and related lipids) of RAW 264.7 cell extracts, UPLC-MS/MS; assay type: cell-based, mouse; details: 30 min
human recombinant COX-2 = target: T2, human recombinant COX-2 (Homo sapiens, UniProt P35354); experiment: COX-2 inhibition, oxygraphic method (oxygen electrode); assay type: biochemical; details: no preincubation phase, approximate, from initial velocities
T2 construct: purchased Cayman Chemical Co. 60122
T2 sequence (P35354 18-604): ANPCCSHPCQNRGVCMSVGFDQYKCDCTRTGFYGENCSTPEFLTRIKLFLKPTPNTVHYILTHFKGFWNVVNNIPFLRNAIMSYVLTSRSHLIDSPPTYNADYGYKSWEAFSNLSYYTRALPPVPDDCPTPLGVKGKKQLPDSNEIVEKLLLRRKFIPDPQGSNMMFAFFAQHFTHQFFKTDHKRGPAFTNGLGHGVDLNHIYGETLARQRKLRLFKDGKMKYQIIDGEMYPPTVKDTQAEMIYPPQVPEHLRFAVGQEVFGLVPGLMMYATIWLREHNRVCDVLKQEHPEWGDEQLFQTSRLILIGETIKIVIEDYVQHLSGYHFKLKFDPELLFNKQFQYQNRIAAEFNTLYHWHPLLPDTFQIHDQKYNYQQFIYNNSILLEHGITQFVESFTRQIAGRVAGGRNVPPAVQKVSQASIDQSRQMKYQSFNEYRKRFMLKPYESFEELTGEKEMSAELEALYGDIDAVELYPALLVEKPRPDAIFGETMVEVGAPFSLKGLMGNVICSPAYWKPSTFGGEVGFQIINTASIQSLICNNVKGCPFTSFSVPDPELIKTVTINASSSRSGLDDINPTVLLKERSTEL
Protocol: The assay was performed according to Meade et al. with minor modifications. An oxygen electrode chamber with integral stirring (Oxygraph System, Hansatech Instruments, King´s Lynn, U.K.) was calibrated daily to ambient temperature and air pressure. The assay buffer contained 0.1 M Tris-HCl buffer pH 7.4, 1 μM haematin, 2 mM phenol, 5 mM EDTA, 10 μM substrate (arachidonic acid or 2-AG) (final assay volume was 2 ml). After addition of (R)- or (S)-Flu-AM1 dissolved in ethanol (final assay concentration 1%), a baseline was established for 5 min before initiation of reaction by addition of 200 units ovine COX-1 or human recombinant COX-2. The change in oxygen consumption as a measurement of enzyme activity was monitored for approximately 5 min.

RAW 264.7 cells [2] = experiment: [3H]AEA hydrolysis by intact RAW 264.7 cells; assay type: cell-based, mouse; details: LPS + INF-γ-treated cells; 100 nM [3H]AEA, 60 min; URB597 1 μM, flurbiprofen and (R)-Flu-AM1 10 μM
[3] = LPS + IFNγ 24 h, URB597 1 μM, flurbiprofen 10 μM, (R)-Flu-AM1 10 μM, median (range), n = 5–6
[4] = Treatment None (unstimulated), URB597 1 μM, flurbiprofen 10 μM, (R)-Flu-AM1 10 μM, median (range), n = 5–6

Q: Which IC50 (rat brain FAAH) does the source give for `Cc1cccnc1NC(=O)[C@H](C)c1ccc(-c2ccccc2)c(F)c1` [(R)-Flu-AM1, (R)-2-(2-Fluorobiphenyl-4-yl)-N-(3-Methylpyridin-2-yl)Propanamide] here?
A: 0.74 µM

Q: And the “Effect on basal and LPS + INF-γ-stimulated PGD2 and PGE2 production” value (RAW 264.7 cells [1]; 10 μM)?
A: almost complete inhibition

Q: What about the “Effect upon linoleic acid-derived oxylipins” value (RAW 264.7 cells [1]; 10 μM) of the same compound?
A: No significant effects

Q: What about the “Effect on levels of 2-AG in the cell extracts” value (RAW 264.7 cells [1]; 10 μM, unstimulated and LPS + INF-γ-treated) of the same compound?
A: not affected

Q: And the “2-AG level relative to vehicle None median” value (RAW 264.7 cells [1]; [3])?
A: 0.81 (0.64–0.98)

Q: What about the “9,10,13-TriHOME level relative to vehicle None median” value (RAW 264.7 cells [1]; [3]) of the same compound?
A: 1.18 (0.90–1.49)

Q: And the “9,10-DiHOME level relative to vehicle None median” value (RAW 264.7 cells [1]; [3])?
A: 0.82 (0.65–1.09)

Q: What about the “9,12,13-TriHOME level relative to vehicle None median” value (RAW 264.7 cells [1]; [3]) of the same compound?
A: 1.22 (0.79–1.60)

Q: And the “9-HODE level relative to vehicle None median” value (RAW 264.7 cells [1]; [3])?
A: 1.06 (0.50–1.64)

Q: What about the “11-HETE level relative to vehicle None median” value (RAW 264.7 cells [1]; [3]) of the same compound?
A: 2.29 (0.92–7.87)

Q: And the “12(13)-EpOME level relative to vehicle None median” value (RAW 264.7 cells [1]; [3])?
A: 1.02 (0.53–1.98)

Q: And the “12(S)-HEPE level relative to vehicle None median” value (RAW 264.7 cells [1]; [3])?
A: 0.27 (0–0.74)

Q: And the “12,13-DiHOME level relative to vehicle None median” value (RAW 264.7 cells [1]; [3])?
A: 0.93 (0.76–1.04)

Q: And the “12-HETE level relative to vehicle None median” value (RAW 264.7 cells [1]; [3])?
A: 0.32 (0.10–1.05)

Q: And the “13-HODE level relative to vehicle None median” value (RAW 264.7 cells [1]; [3])?
A: 1.21 (0.55–1.75)

Q: What about the “13-oxo-ODE level relative to vehicle None median” value (RAW 264.7 cells [1]; [3]) of the same compound?
A: 1.49 (0.31–2.85)

Q: And the “15-HETE level relative to vehicle None median” value (RAW 264.7 cells [1]; [3])?
A: 1.33 (0.67–3.37)

Q: And the “AEA level relative to vehicle None median” value (RAW 264.7 cells [1]; [3])?
A: 1.01 (0.37–1.16)

Q: What about the “LEA level relative to vehicle None median” value (RAW 264.7 cells [1]; [3]) of the same compound?
A: 1.13 (0.33–1.60)

Q: And the “OEA level relative to vehicle None median” value (RAW 264.7 cells [1]; [3])?
A: 1.03 (0.87–1.22)

Q: And the “PEA level relative to vehicle None median” value (RAW 264.7 cells [1]; [3])?
A: 0.91 (0.49–1.15)

Q: And the “PGD2 level relative to vehicle None median” value (RAW 264.7 cells [1]; [3])?
A: 3.14 (1.51–4.13)

Q: And the “SEA level relative to vehicle None median” value (RAW 264.7 cells [1]; [3])?
A: 0.86 (0.65–1.11)

Q: What about the “Effect on levels of AEA and related N-acylethanolamines in the cells” value (RAW 264.7 cells [1]; LPS + INF-γ-treated, ionomycin (5 μM) treated cells, URB597 1 μM, flurbiprofen and (R)-Flu-AM1 10 μM) of the same compound?
A: did not affect

Q: What about the “2-AG level relative to vehicle None median” value (RAW 264.7 cells [1]; [4]) of the same compound?
A: 0.94 (0.62–1.52)

Q: And the “9,10,13-TriHOME level relative to vehicle None median” value (RAW 264.7 cells [1]; [4])?
A: 1.04 (0.81–1.41)

Q: What about the “9,10-DiHOME level relative to vehicle None median” value (RAW 264.7 cells [1]; [4]) of the same compound?
A: 1.05 (0.64–1.66)

Q: And the “9,12,13-TriHOME level relative to vehicle None median” value (RAW 264.7 cells [1]; [4])?
A: 1.08 (0.76–1.57)

Q: And the “9-HODE level relative to vehicle None median” value (RAW 264.7 cells [1]; [4])?
A: 0.99 (0.66–2.11)

Q: And the “11-HETE level relative to vehicle None median” value (RAW 264.7 cells [1]; [4])?
A: 0.55 (0.12–2.43)

Q: What about the “12(13)-EpOME level relative to vehicle None median” value (RAW 264.7 cells [1]; [4]) of the same compound?
A: 1.03 (0.51–5.45)

Q: What about the “12(S)-HEPE level relative to vehicle None median” value (RAW 264.7 cells [1]; [4]) of the same compound?
A: 0.90 (0.17–1.43)

Q: And the “12,13-DiHOME level relative to vehicle None median” value (RAW 264.7 cells [1]; [4])?
A: 1.12 (0.73–1.53)

Q: What about the “12-HETE level relative to vehicle None median” value (RAW 264.7 cells [1]; [4]) of the same compound?
A: 0.94 (0.27–1.82)

Q: And the “13-HODE level relative to vehicle None median” value (RAW 264.7 cells [1]; [4])?
A: 0.97 (0.71–2.66)

Q: What about the “13-oxo-ODE level relative to vehicle None median” value (RAW 264.7 cells [1]; [4]) of the same compound?
A: 1.97(0.59–3.00)

Q: And the “15-HETE level relative to vehicle None median” value (RAW 264.7 cells [1]; [4])?
A: 1.37 (0–2.72)

Q: And the “AEA level relative to vehicle None median” value (RAW 264.7 cells [1]; [4])?
A: 0.65 (0.39–0.86)

Q: And the “LEA level relative to vehicle None median” value (RAW 264.7 cells [1]; [4])?
A: 1.07 (0.21–1.26)

Q: And the “OEA level relative to vehicle None median” value (RAW 264.7 cells [1]; [4])?
A: 1.01 (0.79–1.11)

Q: And the “PEA level relative to vehicle None median” value (RAW 264.7 cells [1]; [4])?
A: 0.89 (0.74–1.06)

Q: What about the “PGD2 level relative to vehicle None median” value (RAW 264.7 cells [1]; [4]) of the same compound?
A: 0 (0–0.25)

Q: And the “PGE2 level relative to vehicle None median” value (RAW 264.7 cells [1]; [4])?
A: 0 (0–0.25)

Q: What about the “SEA level relative to vehicle None median” value (RAW 264.7 cells [1]; [4]) of the same compound?
A: 0.90 (0.52–1.02)

Q: What about the IC50 (human recombinant COX-2; 10 μM 2-AG, read-out: IC50 COX-2 (2-AG)) of the same compound?
A: 1 µM and ~1 µM

Q: And the IC50 (human recombinant COX-2; 10 μM arachidonic acid, read-out: IC50 COX-2 (arachidonic acid))?
A: 20 µM and ~20 µM

Q: And the “Effect on hydrolysis of exogenous [3H]AEA by intact cells” value (RAW 264.7 cells [2])?
A: would not be expected, and this was found to be the case
